How the values were obtained:
[1] = molecular target: T1, Mcl-1 protein (residues 171-323) (Homo sapiens, UniProt Q07820); test: Inhibition of Mcl-1 by fluorescence polarization (FP) competitive binding assay with FAM-Bid tracer; details: 2 nM FAM-Bid, 20 nM Mcl-1, 30 min
T1 construct: Tag-free Mcl-1 protein (residues 171-323) was used in the FP assay
In short: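 Tag-free Mcl-1 (20 nM) with 2 nM FAM-Bid peptide in PBS, 0.01% BGG, 0.01% Triton X-100, 5% DMSO, 30 min at room temperature. FP read at Ex 485/Em 528 nm. IC50 from 10-point curves normalised to DMSO and no-protein controls.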

OPM-2 cells = test: Cell viability assay (OPM-2 cells), CCK-8; assay type: cell-based; details: Homo sapiens, OPM-2, 24 h, 5% FBS
In short: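 OPM-2 myeloma cells (20000/well) exposed to serially diluted compound for 24 h at 37 °C, 5% CO2, then incubated 4 h with CCK-8 and read at 450 nm. Readings normalized to vehicle; IC50 from nonlinear regression.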

NCI-H929 cells = test: Cell viability assay (NCI-H929 cells), CCK-8; assay type: cell-based; details: Homo sapiens, NCI-H929, 24 h, 5% FBS
In short: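 NCI-H929 cells from ATCC were seeded at 20000 cells/well in 95 μL of culture medium in 96-well plates and grown for 4 hrs. Compounds, serially diluted in DMSO and further diluted in medium, were added as 5 μL, and cells were incubated for 24 hrs at 37° C. with 5% CO2. Viability was measured with CCK-8.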

T1 sequence (Q07820 171-323): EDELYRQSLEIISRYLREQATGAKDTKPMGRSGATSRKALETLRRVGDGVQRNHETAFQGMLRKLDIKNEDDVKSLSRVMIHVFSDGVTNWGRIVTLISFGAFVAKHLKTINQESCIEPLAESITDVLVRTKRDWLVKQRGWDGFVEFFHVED

Structure (SMILES) | IC50 [1] | IC50 (NCI-H929 cells) | IC50 (OPM-2 cells)
CO[C@@]1(CN2CCN3CCOC[C@@H]3C2)C2=C[C@@H](C2)[C@H](C)[C@@H](C)S(=O)(=O)NC(=O)c2ccc3c(c2)N(C[C@@H]2CC[C@H]21)C[C@@]1(CCCc2c1ccc(Cl)c2F)CO3 [compound 51, (1S,11′R,12′S,13′R,16′R,16a′R,18a′R,E)-6-chloro-5-fluoro-16′-(((S)-hexahydropyrazino[2,1-c][1,4]oxazin-8(1H)-yl)methyl)-16′-methoxy-11′,12′-dimethyl-3,4,12′,13′,16′,16a′,17′,18′,18a′,19′-decahydro-1′H,2H,3′H,11′H-spiro[naphthalene-1,2′-[5,7]etheno[13,15]methanocyclobuta[i][1,4]oxazepino[3,4-f][1]thia[2,7]diazacyclohexadecin]-8′(9′H)-one 10′,10′-dioxide] | 0.0074 µM | 0.006 µM | 0.014 µM
CNC[C@]1(OC)C2=C[C@@H](C2)[C@H](C)[C@@H](C)S(=O)(=O)NC(=O)c2ccc3c(c2)N(C[C@@H]2CC[C@H]21)C[C@@]1(CCCc2c1ccc(Cl)c2F)CO3 [compound 52, (1S,11′R,12′S,13′R,16′R,16a′R,18a′R,E)-6-chloro-5-fluoro-16′-methoxy-11′,12′-dimethyl-16′-((methylamino)methyl)-3,4,12′,13′,16′,16a′,17′,18′,18a′,19′-decahydro-1′H,2H,3′H,11′H-spiro[naphthalene-1,2′-[5,7]etheno[13,15]methanocyclobuta[i][1,4]oxazepino[3,4-f][1]thia[2,7]diazacyclohexadecin]-8′(9′H)-one 10′,10′-dioxide] | 0.007 µM | 0.019 µM | 0.023 µM
CO[C@@]1(CN(C)C(C)=O)C2=C[C@@H](C2)[C@H](C)[C@@H](C)S(=O)(=O)NC(=O)c2ccc3c(c2)N(C[C@@H]2CC[C@H]21)C[C@@]1(CCCc2c1ccc(Cl)c2F)CO3 [compound 53, N-(((1S,11′R,12′S,13′R,16′R,16a′R,18a′R,E)-6-chloro-5-fluoro-16′-methoxy-11′,12′-dimethyl-10′,10′-dioxido-8′-oxo-3,4,8′,9′,12′,13′,16′,16a′,17′,18′,18a′,19′-dodecahydro-1′H,2H,3′H,11′H-spiro[naphthalene-1,2′-[5,7]etheno[13,15]methanocyclobuta[i][1,4]oxazepino[3,4-f][1]thia[2,7]diazacyclohexadecin]-16′-yl)methyl)-N-methylacetamide] | 0.0057 µM | 0.049 µM | 0.057 µM
CO[C@@]1(CN2CCN3CCOC[C@@H]3C2)C2=C[C@@H](C2)[C@H](C)[C@@H](C)S(=O)(=O)NC(=O)c2ccc3c(n2)N(C[C@@H]2CC[C@H]21)C[C@@]1(CCCc2c1ccc(Cl)c2F)CO3 [compound 54, (1S,11′R,12′S,13′R,16′R,16a′R,18a′R,E)-6-chloro-5-fluoro-16′-(((S)-hexahydropyrazino[2,1-c][1,4]oxazin-8(1H)-yl)methyl)-16′-methoxy-11′,12′-dimethyl-3,4,12′,13′,16′,16a′,17′,18′,18a′,19′-decahydro-1′H,2H,3′H, 11′H-spiro[naphthalene-1,2′-[5,7]etheno[13,15]methanocyclobuta[i][1,4]oxazepino[3,4-f][1]thia[2,5,7]triazacyclohexadecin]-8′(9′H)-one 10′,10′-dioxide] | 0.015 µM | 0.0049 µM | 0.056 µM
CC(C)[C@@H]1C2=C[C@@H](C2)[C@H](C)[C@@H](C)S(=O)(=O)NC(=O)c2ccc3c(c2)N(C[C@@H]2CC[C@H]21)C[C@@]1(CCCc2c1ccc(Cl)c2F)CO3 [compound 55, (1S,11′R,12′S,13′R,16′S,16a′S,18a′R)-6-chloro-5-fluoro-16′-isopropyl-11′,12′-dimethyl-3,4,12′,13′,16′,16a′,17′,18′,18a′,19′-decahydro-1′H,2H,3′H,11′H-spiro[naphthalene-1,2′-[5,7]etheno[13,15]methanocyclobuta[i][1,4]oxazepino[3,4-f][1]thia[2,7]diazacyclohexadecin]-8′(9′H)-one 10′,10′-dioxide] | 0.013 µM | 1 µM | 1.01 µM

More lines, main results first:

IC50 [1] | IC50 (NCI-H929 cells) | Structure (SMILES) | IC50 (OPM-2 cells)
0.013 µM | 0.043 µM | C[C@@H]1[C@@H](C)S(=O)(=O)NC(=O)c2ccc3c(c2)N(C[C@@H]2CC[C@H]2[C@@H](N(C)C)C2=C[C@H]1C2)C[C@@]1(CCCc2c1ccc(Cl)c2F)CO3 [compound 57, (1S,11′R,12′S,13′R,16′R,16a′R,18a′R)-6-chloro-16′-(dimethylamino)-5-fluoro-11′,12′-dimethyl-3,4,12′,13′,16′,16a′,17′,18′,18a′,19′-decahydro-1′H,2H,3′H,11′H-spiro[naphthalene-1,2′-[5,7]etheno[13,15]methanocyclobuta[i][1,4]oxazepino[3,4-f][1]thia[2,7]diazacyclohexadecin]-8′(9′H)-one 10′,10′-dioxide] | 0.036 µM
0.019 µM | 0.018 µM | COCCN[C@H]1C2=C[C@@H](C2)[C@H](C)[C@@H](C)S(=O)(=O)NC(=O)c2ccc3c(c2)N(C[C@@H]2CC[C@H]21)C[C@@]1(CCCc2c1ccc(Cl)c2F)CO3 [compound 58, (1S,11′R,12′S,13′R,16′R,16a′R,18a′R)-6-chloro-5-fluoro-16′-((2-methoxyethyl)amino)-11′,12′-dimethyl-3,4,12′,13′,16′,16a′,17′,18′,18a′,19′-decahydro-1′H,2H,3′H, 11′H-spiro[naphthalene-1,2′-[5,7]etheno[13,15]methanocyclobuta[i][1,4]oxazepino[3,4-f][1]thia[2,7]diazacyclohexadecin]-8′(9′H)-one 10′,10′-dioxide] | 0.057 µM
0.013 µM | 0.0041 µM | C[C@@H]1[C@@H](C)S(=O)(=O)NC(=O)c2ccc3c(c2)N(C[C@@H]2CC[C@H]2[C@@H](OCCN2CCOCC2)C2=C[C@H]1C2)C[C@@]1(CCCc2c1ccc(Cl)c2F)CO3 [compound 59, (1S,11′R,12′S,13′R,16′R,16a′R,18a′R,E)-6-chloro-5-fluoro-11′,12′-dimethyl-16′-(2-morpholinoethoxy)-3,4,12′,13′,16′,16a′,17′,18′,18a′,19′-decahydro-1′H,2H,3′H,11′H-spiro[naphthalene-1,2′-[5,7]etheno[13,15]methanocyclobuta[i][1,4]oxazepino[3,4-f][1]thia[2,7]diazacyclohexadecin]-8′(9′H)-one 10′,10′-dioxide] | 0.037 µM
0.015 µM | 0.019 µM | COCCO[C@H]1C2=C[C@@H](C2)[C@H](C)[C@@H](C)S(=O)(=O)NC(=O)c2ccc3c(c2)N(C[C@@H]2CC[C@H]21)C[C@@]1(CCCc2c1ccc(Cl)c2F)CO3 [compound 60, (1S,11′R,12′S,13′R,16′R,16a′R,18a′R,E)-6-chloro-5-fluoro-16′-(2-methoxyethoxy)-11′,12′-dimethyl-3,4,12′,13′,16′,16a′,17′,18′,18a′,19′-decahydro-1′H,2H,3′H,11′H-spiro[naphthalene-1,2′-[5,7]etheno[13,15]methanocyclobuta[i][1,4]oxazepino[3,4-f][1]thia[2,7]diazacyclohexadecin]-8′(9′H)-one 10′,10′-dioxide] | 0.066 µM
0.01 µM | 0.028 µM | C[C@@H]1[C@@H](C)S(=O)(=O)NC(=O)c2ccc3c(c2)N(C[C@@H]2CC[C@H]2[C@@H](OCCS(C)(=O)=O)C2=C[C@H]1C2)C[C@@]1(CCCc2c1ccc(Cl)c2F)CO3 [compound 61, (1S,11′R,12′S,13′R,16′R,16a′R,18a′R,E)-6-chloro-5-fluoro-11′,12′-dimethyl-16′-(2-(methylsulfonyl)ethoxy)-3,4,12′,13′,16′,16a′,17′,18′,18a′,19′-decahydro-1′H,2H,3′H,11′H-spiro[naphthalene-1,2′-[5,7]etheno[13,15]methanocyclobuta[i][1,4]oxazepino[3,4-f][1]thia[2,7]diazacyclohexadecin]-8′(9′H)-one 10′,10′-dioxide] | 0.075 µM
0.0081 µM | 0.0093 µM | C[C@@H]1[C@@H](C)S(=O)(=O)NC(=O)c2ccc3c(c2)N(C[C@@H]2CC[C@H]2[C@@H](OCc2ncccn2)C2=C[C@H]1C2)C[C@@]1(CCCc2c1ccc(Cl)c2F)CO3 [compound 62, (1S,11′R,12′S,13′R,16′R,16a′R,18a′R,E)-6-chloro-5-fluoro-11′,12′-dimethyl-16′-(pyrimidin-2-ylmethoxy)-3,4,12′,13′,16′,16a′,17′,18′,18a′,19′-decahydro-1′H,2H,3′H,11′H-spiro[naphthalene-1,2′-[5,7]etheno[13,15]methanocyclobuta[i][1,4]oxazepino[3,4-f][1]thia[2,7]diazacyclohexadecin]-8′(9′H)-one 10′,10′-dioxide] | 0.059 µM
0.013 µM | 0.098 µM | C[C@@H]1[C@@H](C)S(=O)(=O)NC(=O)c2ccc3c(c2)N(C[C@@H]2CC[C@H]2[C@@H](OCc2nccn2C)C2=C[C@H]1C2)C[C@@]1(CCCc2c1ccc(Cl)c2F)CO3 [compound 63, (1S,11′R,12′S,13′R,16′R,16a′R,18a′R,E)-6-chloro-5-fluoro-11′,12′-dimethyl-16′-((1-methyl-1H-imidazol-2-yl)methoxy)-3,4,12′,13′,16′,16a′,17′,18′,18a′,19′-decahydro-1′H,2H,3′H, 11′H-spiro[naphthalene-1,2′-[5,7]etheno[13,15]methanocyclobuta[i][1,4]oxazepino[3,4-f][1]thia[2,7]diazacyclohexadecin]-8′(9′H)-one 10′,10′-dioxide] | 0.088 µM

Source: US11498928B2, “Macrocyclic spiroethers as Mcl-1 inhibitors” (ASCENTAGE PHARMA (SUZHOU) CO., LTD., priority 2019, dated 2022)
